Several values for one entry are separate records, joined by “and”; a condition that tells them apart may be missing. Equal entries are not always repeated.
System: BDF1 mice, Adenocarcinoma 755 s.c., tumor weight T/C
Assay: NCI In Vivo Anticancer Drug Screen. Data for tumor model Adenocarcinoma 755 (subcutaneous) in B6D2F1 (BDF1) mice
Conditions: endpoint: mean tumor weight, higher = larger tumour
Procedure, shortened: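 Values express treated (T) relative to vehicle-dosed control (C) animals, based on survival or tumour size measured after compound treatment of mice bearing a transplanted tumour.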

[1] = dose: 50.0 mg/kg/injection, schedule: Q01DX011 (ip), vehicle: saline

With COC(=O)C1C(O)CCC2CN3CCc4c([nH]c5ccccc45)C3CC21 (stereo unspecified) the T/C (dose: 150.0 mg/kg/injection, schedule: Q01DX011 (ip), vehicle: carboxymethylcellulose (CMC)) was 75 % of control.
For Nc1ncnc2c1cnn2C1CCCCO1 (stereo unspecified), the T/C (dose: 1.75 mg/kg/injection, schedule: Q01DX011 (ip), vehicle: methylcellulose (MC)) was 74 % of control, the T/C (dose: 3.5 mg/kg/injection, schedule: Q01DX011 (ip), vehicle: methylcellulose (MC)) was 50 % of control and the T/C (dose: 7.0 mg/kg/injection, schedule: Q01DX011 (ip), vehicle: methylcellulose (MC)) was 21 % of control. For the same compound, the T/C (dose: 14.0 mg/kg/injection, schedule: Q01DX011 (ip), vehicle: methylcellulose (MC)) was 1 % of control.
Cc1ccc2c(c1)Sc1ccc3ccccc3c1N2 was tested, and the T/C (dose: 12.5 mg/kg/injection, schedule: Q01DX011 (ip), vehicle: carboxymethylcellulose (CMC)) was 57 % of control, the T/C (dose: 15.0 mg/kg/injection, schedule: Q01DX011 (ip), vehicle: saline) was 94 % of control and the T/C (dose: 22.0 mg/kg/injection, schedule: Q01DX011 (ip), vehicle: saline) was 42 % of control. The T/C (dose: 25.0 mg/kg/injection, schedule: Q01DX011 (ip), vehicle: carboxymethylcellulose (CMC)) was 27 % of control, the T/C (dose: 33.0 mg/kg/injection, schedule: Q01DX011 (ip), vehicle: saline) was 36 % of control and the T/C (dose: 50.0 mg/kg/injection, schedule: Q01DX011 (ip), vehicle: carboxymethylcellulose (CMC)) was 26 % of control and 42 % of control. For the same compound, the T/C [1] was 26 % of control and 51 % of control, the T/C (dose: 62.5 mg/kg/injection, schedule: Q01DX011 (ip), vehicle: carboxymethylcellulose (CMC)) was 58 % of control and the T/C (dose: 75.0 mg/kg/injection, schedule: Q01DX011 (ip), vehicle: carboxymethylcellulose (CMC)) was 37 % of control. For the same compound, the T/C (dose: 75.0 mg/kg/injection, schedule: Q01DX011 (ip), vehicle: saline) was 28 % of control, the T/C (dose: 112.0 mg/kg/injection, schedule: Q01DX011 (ip), vehicle: carboxymethylcellulose (CMC)) was 43 % of control and the T/C (dose: 112.0 mg/kg/injection, schedule: Q01DX011 (ip), vehicle: saline) was 14 % of control. The T/C (dose: 168.0 mg/kg/injection, schedule: Q01DX011 (ip), vehicle: carboxymethylcellulose (CMC)) was 18 % of control and 22 % of control, the T/C (dose: 168.0 mg/kg/injection, schedule: Q01DX011 (ip), vehicle: saline) was 14 % of control and the T/C (dose: 335.0 mg/kg/injection, schedule: Q01DX011 (ip), vehicle: carboxymethylcellulose (CMC)) was 10 % of control.
With O=[N+]([O-])O.[Ga] the T/C (dose: 12.5 mg/kg/injection, schedule: Q01DX011 (ip), vehicle: saline) was 20 % of control, the T/C (dose: 25.0 mg/kg/injection, schedule: Q01DX011 (ip), vehicle: saline) was 24 % of control and the T/C [1] was 7 % of control.
C[C@]12CCC(=O)C=C1CC[C@@H]1[C@@H]2[C@@H](O)C[C@@]2(C)[C@H]1CC[C@]2(O)C(=O)CF was tested, and the T/C (dose: 50.0 mg/kg/injection, schedule: Q01DX011 (sc), vehicle: steriod suspending solution) was 21 % of control, the T/C (dose: 100.0 mg/kg/injection, schedule: Q01DX011 (sc), vehicle: steriod suspending solution) was 16 % of control and the T/C (dose: 200.0 mg/kg/injection, schedule: Q01DX011 (sc), vehicle: steriod suspending solution) was 6 % of control and 10 % of control. For the same compound, the T/C (dose: 400.0 mg/kg/injection, schedule: Q01DX011 (sc), vehicle: steriod suspending solution) was 7 % of control and 9 % of control and the T/C (dose: 600.0 mg/kg/injection, schedule: Q01DX011 (sc), vehicle: steriod suspending solution) was 9 % of control.
NC(=S)n1cccn1 was tested, and the T/C (dose: 20.0 mg/kg/injection, schedule: Q01DX011 (ip), vehicle: methylcellulose (MC)) was 91 % of control, the T/C (dose: 40.0 mg/kg/injection, schedule: Q01DX011 (ip), vehicle: methylcellulose (MC)) was 85 % of control and the T/C (dose: 80.0 mg/kg/injection, schedule: Q01DX011 (ip), vehicle: methylcellulose (MC)) was 44 % of control. The T/C (dose: 160.0 mg/kg/injection, schedule: Q01DX011 (ip), vehicle: methylcellulose (MC)) was 8 % of control.
In the case of NC(=O)c1cc(N)nc(N)n1, the T/C (dose: 15.0 mg/kg/injection, schedule: Q01DX011 (ip), vehicle: methylcellulose (MC)) is reported as 97 % of control, the T/C (dose: 31.0 mg/kg/injection, schedule: Q01DX011 (ip), vehicle: methylcellulose (MC)) is reported as 106 % of control and the T/C (dose: 62.0 mg/kg/injection, schedule: Q01DX011 (ip), vehicle: methylcellulose (MC)) is reported as 114 % of control. The T/C (dose: 125.0 mg/kg/injection, schedule: Q01DX011 (ip), vehicle: methylcellulose (MC)) was 45 % of control.
